These results are taken from ChEMBL document CHEMBL5154860 (J Med Chem, 2022).

Data set [1] can be described thus: in vivo. As to conditions: Sprague-Dawley, rat, brain / plasma, iv, 0.2 mg/kg.
Data set [2] in a line: in vivo. The conditions noted are these: Sprague-Dawley, rat, brain / plasma, iv, 0.2 mg/kg. This is another data set of the same source.
The nature of data set [3]: in vitro. As to conditions: human, liver microsomes.
Data set [4] in a line: in vivo. The conditions noted are these: Sprague-Dawley, rat, po, 10 mg/kg.
Data set [5] can be described thus: in vivo. The conditions noted are these: Sprague-Dawley, rat, po, 10 mg/kg. The source holds these as a separate data set.
Data set [6] in a line: in vivo. The conditions noted are these: Sprague-Dawley, rat, po, 10 mg/kg. The source holds these as a separate data set.
Data set [7] is described as follows: in vivo. The conditions noted are these: Sprague-Dawley, rat, iv, 1 mg/kg.
Data set [8] is described as follows: in vivo. As to conditions: Sprague-Dawley, rat, iv, 1 mg/kg. The source holds these as a separate data set.
A short description of data set [9]: in vivo. As to conditions: Sprague-Dawley, rat, iv, 1 mg/kg. The source holds these as a separate data set.
A short description of data set [10]: in vitro. As to conditions: dog, MDCK-MDR1.
A short description of data set [11]: in vivo. The conditions noted are these: Sprague-Dawley, rat, iv, 1 mg/kg. This is another data set of the same source.
Data set [12] can be described thus: in vivo. The conditions noted are these: Sprague-Dawley, rat, iv, 1 mg/kg. The source holds these as a separate data set.
The nature of data set [13]: in vivo. As to conditions: Sprague-Dawley, rat, po, 10 mg/kg. The source holds these as a separate data set.
Data set [14] in a line: in vitro. The conditions noted are these: Sprague-Dawley, rat, liver microsomes.

In the case of `Cn1ccnc1SCC1CCN(S(=O)(=O)c2ccc3c(c2)CCO3)CC1`, the Kp in the data set “in vivo [1]” came to 0.08. Besides, the Kp uu in “in vivo [2]” was found to be 0.11. Moreover, the CLint scaled at […], 1 µM in the data set “in vitro [3]” is 1270 mL/min/kg.
The compound `Cn1ccnc1SCC1CCN(S(=O)(=O)c2ccc3ncsc3c2)CC1` displayed a Kp in “in vivo [1]” of less than 0.48. This compound also displayed a Kp uu in the data set “in vivo [2]” of less than 0.5.
Consider `O=S(=O)(c1ccc2c(c1)CCO2)N1CCC(CSc2nccs2)CC1`, for which the Kp in “in vivo [1]” turned out to be 0.27. Moreover, the Kp uu in the data set “in vivo [2]” amounted to 0.23.
In the same order, the values of `CC(Sc1nccn1C)C1CCN(S(=O)(=O)c2ccc3c(c2)CCO3)CC1` (centres undefined) are 0.22 and 0.29.
In the data set “in vivo [1]”, `Cc1nc(SCC2CCN(S(=O)(=O)c3ccc4c(c3)CCO4)CC2)n(C)c1C` gave a Kp of 0.22. In the data set “in vivo [2]”, this compound showed a Kp uu of 0.32.
On the same counts, the results for `Cc1nnc(SCC2CCN(S(=O)(=O)c3ccc4c(c3)CCO4)CC2)s1` are 1.25 and 1.1.
On the same counts, the results for `Cc1cn(C)c(SCC2CCN(S(=O)(=O)c3ccc4c(c3)CCO4)CC2)n1` are 0.07 and 0.19.
In “in vivo [1]”, `Cn1ccnc1SCC1CCN(S(=O)(=O)c2ccc3c(c2)OCO3)CC1` had a Kp of 0.53. The same compound had a Kp uu in the data set “in vivo [2]” of 1.88.
For `Cn1ccnc1SC[C@H]1CCN(S(=O)(=O)c2ccc3c(c2)CCO3)C[C@@H]1F`, the values for the AUC at 24 h in the data set “in vivo [4]” and in “in vivo [12]” were 830 ng·h/mL and 301 ng·h/mL, respectively. In “in vivo [5]”, the Tmax at 24 h was 0.25 h. In addition, in the data set “in vivo [6]”, the Cmax at 24 h was found to be 433 ng/mL. Also, the CLint scaled at […], 1 µM in “in vitro [3]” amounted to 318 mL/min/kg; in the data set “in vitro [14]”, 1770 mL/min/kg. Also, in the data set “in vivo [7]”, the half-life at 24 h stood at 14.6 h. Moreover, the volume of distribution (Vd) at 24 h in the data set “in vivo [8]” came out at 36.6 L/kg. This compound also gave a clearance at 24 h in “in vivo [9]” of 56.5 mL/min/kg. In “in vitro [10]”, the Papp worked out at 26.8 ×10⁻⁶ cm/s. The compound further showed an MRT at 24 h in the data set “in vivo [11]” of 10.7 h. This compound also had a bioavailability at 24 h in “in vivo [13]” of 27.6%.
